Tested on: muqueuse
Assay: Comparative acute in vivo toxicity (mucosal irritation, C20)
Parameters: species or system lapin
Settings: for concentration théorique provoquant une irritation de la muqueuse moyenne identique (C20): rabbit, in vivo
Source text: Enfin, une autre expérience a encore consisté à comparer la toxicité aiguë in vivo du polihexanide avec celle d'autres composés.
A cet effet, la toxicité du polihexanide a été comparée in vivo chez le lapin à celle du digluconate de chlorhexidine, et à celle de trois chlorures de benzyldiméthylalkylammonium.
Pour chacune des substances étudiées, une concentration théorique provoquant une irritation de la muqueuse moyenne identique (C20) a été déterminée.
Ces concentrations sont respectivement : • 0,25 g % pour le chlorure de benzalkonium • 0,28 g % pour le chlorure de benzyldiméthyldodecylammonium • 0,32 g % pour le chlorure de benzyldiméthylhexadecylanmonium • 0,54 g % pour le digluconate de chlorhexidine • 12,2 g % pour le polihexanide.
Ces valeurs montrent par conséquent, que le polihexanide est beaucoup moins toxique pour la muqueuse que les autres composés testés, puisque sa valeur C20 est 22 fois supérieure à celle de la chlorhexidine et 44 fois plus élevée que la valeur moyenne des chlorures de benzalkonium.

Compound | concentration théorique provoquant une irritation de la muqueuse moyenne identique (C20) | valeur C20 supérieure à celle de la chlorhexidine (ratio of C20 values, versus chlorhexidine) [fois] | valeur C20 plus élevée que la valeur moyenne des chlorures de benzalkonium (ratio of C20 values, versus the mean of the benzalkonium chlorides) [fois]
CCCCCCCCCCCCC[N+](C)(C)Cc1ccccc1 [chlorure de benzalkonium] | 0,25 g % | – | –
CCCCCCCCCCCC[N+](C)(C)Cc1ccccc1 [chlorure de benzyldiméthyldodecylammonium] | 0,28 g % | – | –
CCCCCCCCCCCCCCCC[N+](C)(C)Cc1ccccc1 [chlorure de benzyldiméthylhexadecylanmonium] | 0,32 g % | – | –
[H]/N=C(\N/C(=N/[H])NCCCCCCNC(=N)NC(=N)Nc1ccc(Cl)cc1)Nc1ccc(Cl)cc1 [digluconate de chlorhexidine] | 0,54 g % | – | –
polihexanide | 12,2 g % | 22 | 44
